Values of other authors in patent publication US6924277B2, “Cyclized benzamide neurokinin antagonists for use in therapy” (AstraZeneca AB, priority 2000, dated 2005).
Read-outs that look alike come from different tables or passages of the source. Peptide text beside a SMILES is read from it.

Key:
[1] = Elevated plus-maze
[2] = Forced swim test (depression model); only at 30 mg/kg bid; Vassout et al, Neuropeptides 26/S1: 38, 1994
[3] = Light-dark box
[4] = test system: Marmoset; conditions: Marmoset human intruder; Walsh et al., Psychopharmacology 121: 186-191, 1995
[5] = Teixeira et al., Eur J Pharmacol 311(1): 7-14, 1996
[6] = Stratton et al., Eur. J. Pharmacol. 250: R11-12, 1993
[7] = Walsh et al., Psychopharmacology 121: 186-191, 1995

For `Cc1cc(C)cc(C(=O)N2CC[C@H](NCc3ccnc4ccccc34)C[C@H]2Cc2ccccc2)c1` [CGP 49823], the Outcome (Social interaction test, Vassout et al, Neuropeptides 26/S1: 38, 1994) is listed as “anxiolytic”, the Outcome (Social interaction, File, Pharm Bio B 58(3): 747-752, 1997) is listed as “anxiolytic” and the Outcome ([1]; Vassout et al, Neuropeptides 26/S1: 38, 1994) is listed as “inactive”. For the same molecule, the Outcome [2] was “antidepressant”.

In the case of `CN(Cc1ccccc1)C(=O)[C@H](Cc1ccc2ccccc2c1)NC(=O)[C@@H]1C[C@@H](O)CN1C(=O)c1cn(C)c2ccccc12` [FK888], the Outcome [1, 5] is listed as “anxiolytic”.

For `C[C@H](NC(=O)CNC(=O)C1CCCCC1)C(=O)N[C@H](Cc1c[nH]c2ccccc12)C(=O)N[C@@H](Cc1ccccc1)C(=O)N(C)C` [GR100679] (HELM PEPTIDE1{[O=C(C1CCCCC1)[*:2]].G.A.[dW].F.[CN(C)[*:1]]}$$$$V2.0), the Outcome [3, 6] is given as “anxiolytic”.

For `COC1(C[S@@+]([O-])c2ccccc2)CCN(CCc2c[nH]c3ccc(F)cc23)CC1` [GR159897], the Outcome [4] is given as “anxiolytic” and the Outcome [3, 7] is given as “anxiolytic”.

In the case of `CC(=O)NC1(c2ccccc2)CCN(CC[C@H](CN(C)C(=O)c2ccccc2)c2ccc(Cl)c(Cl)c2)CC1` [SR48968], the Outcome [1, 5] is given as “anxiolytic”, the Outcome [4] is given as “anxiolytic” and the Outcome [3, 6] is given as “anxiolytic”. For the same molecule, the Outcome [3, 7] was “anxiolytic”.
